Test results reported in ChEMBL document CHEMBL5512599, “Synthetic non-toxic anti-biofilm agents as a strategy in combating bacterial resistance” (Eur J Med Chem, 2023).
≈ marks a conversion by molar mass, not a printed value. Blank lines part the entries; values can stand above or below the compound they belong to.

Assays:
Staphylococcus aureus [1] = assay: Antibiofilm activity against Staphylococcus aureus ATCC 29213 at 3.1 ug/ml measured after 24 hrs by crystal violet staining based analysis relative to control; type: functional; details: dose 3.1 µg/ml
Staphylococcus aureus [2] = assay: Antibiofilm activity against Staphylococcus aureus BAA 1708 at 3.1 ug/ml measured after 24 hrs by crystal violet staining based analysis relative to control; type: functional; details: dose 3.1 µg/ml
Staphylococcus aureus [3] = assay: Antibiofilm activity against Staphylococcus aureus ATCC 25923 at 3.1 ug/ml measured after 24 hrs by crystal violet staining based analysis relative to control; type: functional; details: dose 3.1 µg/ml
Pseudomonas aeruginosa [4] = assay: Antibiofilm activity against Pseudomonas aeruginosa assessed as reduction in biofilm formation incubated for 24 hrs by microscopic analysis; type: functional, organism-based
Pseudomonas aeruginosa [5] = assay: Antimicrobial activity against Pseudomonas aeruginosa PAO1 assessed as inhibition of microbial growth by microdilution broth method; type: functional
Pseudomonas aeruginosa [6] = assay: Antibiofilm activity against Pseudomonas aeruginosa PAO1 assessed as inhibition of biofilm formation at 10 microg/ml relative to control; type: functional; design: scale not given: the % may be the effect or the level left; details: dose 10 µg/ml
Pseudomonas aeruginosa [7] = assay: Antibiofilm activity against Pseudomonas aeruginosa ATCC 27853 assessed as reduction in biofilm formation at 1/6 times of MIC after 24 hrs by crystal violet staining based assay; type: functional; design: scale not given: the % may be the effect or the level left
Staphylococcus aureus [8] = assay: Antibacterial activity against Staphylococcus aureus MTCC 96 assessed as reduction in microbial growth after 24 hrs by CLSI based microdilution method; type: functional
Staphylococcus aureus [9] = assay: Antibacterial activity against Staphylococcus aureus MLS16 MTCC 2940 assessed as bacterial growth inhibition measured after 24 hrs by microdilution assay; type: functional
Micrococcus luteus = assay: Antibacterial activity against Micrococcus luteus MTCC 2470 assessed as inhibition of bacterial growth incubated for 24 hrs by agar well diffusion method; type: functional
[10] = biological target: T1, Transcriptional regulator MvfR (Pseudomonas aeruginosa PA14, UniProt A0A072ZLE6); assay: Antagonist activity at PqsR in wild-type Pseudomonas aeruginosa PAO1 assessed as reduction in AQ level at 0.2 uM by LCMS/MS analysis
T1 sequence (A0A072ZLE6 whole entry): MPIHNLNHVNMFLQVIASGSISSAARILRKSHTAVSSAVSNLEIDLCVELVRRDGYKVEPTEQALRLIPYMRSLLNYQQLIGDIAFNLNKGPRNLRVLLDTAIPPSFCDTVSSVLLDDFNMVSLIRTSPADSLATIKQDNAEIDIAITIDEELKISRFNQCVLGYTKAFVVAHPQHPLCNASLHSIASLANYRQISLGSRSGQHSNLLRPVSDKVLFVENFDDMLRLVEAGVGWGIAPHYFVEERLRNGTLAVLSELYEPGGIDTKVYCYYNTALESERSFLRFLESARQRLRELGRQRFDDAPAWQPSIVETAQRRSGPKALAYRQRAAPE

[11] = biological target: T1, Transcriptional regulator MvfR; assay: Antagonist activity at PqsR in wild-type Pseudomonas aeruginosa PA14 assessed as reduction in AQ level at 0.2 uM by LCMS/MS analysis
Enterococcus faecium = assay: Antibacterial activity against Vancomycin-resistant Enterococcus faecium ATCC 51559 assessed as reduction in bacterial growth incubated for 18 hrs by spectrophotometry based analysis; type: functional, organism-based; details: ATCC 51559, 18 h
Staphylococcus aureus [12] = assay: Antibacterial activity against Staphylococcus aureus assessed as bacterial growth inhibition; type: functional, organism-based
Staphylococcus aureus [13] = assay: Antibiofilm activity against methicillin-resistant Staphylococcus aureus assessed as inhibition of biofilm formation incubated for 8 hrs by crystal violet staining based analysis; type: functional, organism-based
Staphylococcus aureus [14] = assay: Inhibition of Staphylococcus aureus Sortase A at 100 uM relative to control
Staphylococcus aureus [15] = assay: Antibiofilm activity against Staphylococcus aureus ATCC 25923 assessed as inhibition of biofilm formation; type: functional, organism-based
[16] = Inhibition of quorum sensing system in Pseudomonas aeruginosa PA14 assessed as inhibition of pyocyanin production
Pseudomonas aeruginosa [17] = assay: Antibiofilm activity against Pseudomonas aeruginosa PAO1 assessed as inhibition of biofilm formation incubated for 24 hrs by crystal violet staining based assay; type: functional, organism-based; details: PAO1, 24 h
[18] = Inhibition of quorum sensing system in Pseudomonas aeruginosa PAO1 assessed as inhibition of pyocyanin production at 12.5 uM incubated for 24 hrs by absorbance based assay relative to control
Pseudomonas aeruginosa [19] = assay: Antibiofilm activity against Pseudomonas aeruginosa PAO1 assessed as reduction in biofilm formation at 25 uM relative to control; type: functional; design: scale not given: the % may be the effect or the level left
Pseudomonas aeruginosa [20] = assay: Antibiofilm activity against Pseudomonas aeruginosa PAO1 assessed as reduction in biofilm formation at 12.5 uM relative to control; type: functional; design: scale not given: the % may be the effect or the level left
Pseudomonas aeruginosa [21] = assay: Antibiofilm activity against Pseudomonas aeruginosa PAO1 assessed as reduction in biofilm formation at 50 uM relative to control; type: functional; design: scale not given: the % may be the effect or the level left
Streptococcus mutans = assay: Antibiofilm activity against Streptococcus mutans ATCC 25175 assessed as inhibition of biofilm formation incubated for 24 hrs by crystal violet staining based analysis; type: functional, organism-based; details: ATCC 25175, 24 h
Pseudomonas aeruginosa [22] = assay: Antibiofilm activity against wild type Pseudomonas aeruginosa PAO1 assessed as inhibition of biofilm formation at 100 uM incubated for 24 hrs by crystal violet staining based analysis relative to control; type: functional; design: scale not given: the % may be the effect or the level left
Pseudomonas aeruginosa [23] = assay: Antimicrobial activity against Pseudomonas aeruginosa ATCC 9027 assessed as reduction in microbial growth by serial dilution method; type: functional, organism-based
Staphylococcus aureus [24] = assay: Antibacterial activity against Staphylococcus aureus ATCC 25923 assessed as bacterial growth inhibition measured after 18 hrs by CLSI protocol based two-fold serial microdilution method; type: functional, organism-based; details: ATCC 25923, 18 h
Acinetobacter baumannii [25] = assay: Antibacterial activity against Acinetobacter baumannii ATCC 19606 assessed as growth inhibition incubated for 18 hrs by resazurin dye based assay; type: functional, organism-based; details: ATCC 19606, 18 h
Staphylococcus aureus [26] = assay: Antibiofilm activity against Staphylococcus aureus ATCC 6538 assessed as inhibition of biofilm formation incubated for 24 hrs by crystal violet staining based analysis; type: functional, organism-based; details: ATCC 6538, 24 h
Pseudomonas aeruginosa [27] = assay: Antibiofilm activity against Pseudomonas aeruginosa PAO1 assessed as inhibition of biofilm formation incubated for 8 hrs by crystal violet based; type: functional, organism-based; details: PAO1, 8 h
Pseudomonas aeruginosa [28] = assay: Anti-motility activity against Pseudomonas aeruginosa PAO1 assessed as reduction in swarming at 100 ug/ml incubated for 16 hrs by crystal violet staining analysis; type: functional; design: scale not given: the % may be the effect or the level left; details: dose 100 µg/ml
Pseudomonas aeruginosa [29] = assay: Anti-motility activity against Pseudomonas aeruginosa PAO1 assessed as reduction in swarming at 50 ug/ml incubated for 16 hrs by crystal violet staining analysis; type: functional; design: scale not given: the % may be the effect or the level left; details: dose 50 µg/ml
Acinetobacter baumannii [30] = assay: Antibiofilm activity against Acinetobacter baumannii ATCC 19606 assessed as inhibition of biofilm formation at 66.5 ug/ml by crystal violet assay; type: functional; design: scale not given: the % may be the effect or the level left; details: dose 66.5 µg/ml
Pseudomonas aeruginosa [31] = assay: Antibiofilm activity against Pseudomonas aeruginosa PAO1 assessed as inhibition of biofilm formation at 100 microg/ml relative to control; type: functional; design: scale not given: the % may be the effect or the level left; details: dose 100 µg/ml
Staphylococcus aureus [32] = assay: Antimicrobial activity against methicillin-resistant Staphylococcus aureus ATCC 43866 assessed as reduction in microbial growth incubated for 24 hrs by broth microdilution method; type: functional, organism-based; details: ATCC 43866, 24 h
Staphylococcus aureus [33] = assay: Antimicrobial activity against methicillin-sensitive Staphylococcus aureus ATCC 35556 assessed as reduction in microbial growth incubated for 24 hrs by broth microdilution method; type: functional, organism-based; details: ATCC 35556, 24 h
Pseudomonas aeruginosa [34] = assay: Antibacterial activity against Pseudomonas aeruginosa 27853 assessed as inhibition of bacterial growth at 3.2 microg/ml incubated for 24 hrs by absorbance based microplate reader analysis relative to control; type: functional; design: scale not given: the % may be the effect or the level left; details: dose 3.2 µg/ml

Compound: COc1ccc(CC(=O)[N-]c2c([N+]#N)c(C)nn2C)cc1
Activity (Staphylococcus aureus [1]): 45.7%
Activity (Staphylococcus aureus [2]): 25%
Activity (Staphylococcus aureus [3]): 38%

IC50 (Pseudomonas aeruginosa [4]): 47 µM
Compound: Nc1nc2ccccc2[nH]1

MIC (Pseudomonas aeruginosa [5]): > 512 µM
Compound: O=C(/C=C/c1ccc(O)c(O)c1)OCCc1ccc(Br)cc1
Activity (Pseudomonas aeruginosa [6]): 33.69%

Compound: COc1ccc(CC(=O)OC2OC(=O)C(Br)=C2Br)cc1OC (configuration not stated)
Activity (Pseudomonas aeruginosa [7]): 63%

MIC (Staphylococcus aureus [8]): 9.37 µM
MIC (Staphylococcus aureus [9]): 9.37 µM (≈ 3.57 µg/mL)
MIC (Micrococcus luteus): 18.8 µM (≈ 7.15 µg/mL)
Compound: CCCCCCCCc1ccc(C(F)(F)F)nc1OCc1cn(C#N)nn1

Compound: O=CN1N=C(c2ccccc2)CC1c1cccc(Nc2ccnc3cc(Cl)ccc23)c1 (configuration not stated)
IC50 [10]: 12.4 µM
IC50 [11]: 2.3 µM

Compound: Nc1nc2cc(NC(=O)c3c(Cl)c(Cl)c(Cl)c(Cl)c3C(=O)O)ccc2[nH]1
EC50 (Enterococcus faecium): 75 µM
EC50 (Staphylococcus aureus [12]): < 8 µM
IC50 (Staphylococcus aureus [13]): 1.5 µM

inhibition (Staphylococcus aureus [14]): 47.8%
IC50 (Staphylococcus aureus [15]): 12 µM
Compound: CC(C)(C)OC(=O)NCCn1cc(-c2nc(-c3c[nH]c4ncccc34)cs2)c2ccccc21

IC50 [16]: 0.28 µM
IC50 (Pseudomonas aeruginosa [17]): 0.26 µM
Compound: Cc1cccc(/C=C2/C(c3cccc(C)c3)=CC(=O)N2Cc2ccccc2)c1

inhibition [18]: 94%
Compound: CCCCCCSSc1nc2ccccc2c(=O)[nH]1
Activity (Pseudomonas aeruginosa [19]): 43%
Activity (Pseudomonas aeruginosa [20]): 38%
Activity (Pseudomonas aeruginosa [21]): 46%

IC50 (Streptococcus mutans): 5.8 µM
Compound: CCOC(=O)c1nn(-c2ccc([N+](=O)[O-])cc2)cc1C(=O)c1cc2cc(CN3CCN(Cc4ccc5oc(C(=O)c6cn(-c7ccc([N+](=O)[O-])cc7)nc6C(=O)OCC)cc5c4)CC3)ccc2o1

Compound: Nc1nc2ccc(/C=C/c3ccccc3)cc2[nH]1
Activity (Pseudomonas aeruginosa [22]): 56%

Compound: O=C1C=C(c2ccc(F)cc2)/C(=C/Sc2ccccn2)N1
IC50 (Pseudomonas aeruginosa [23]): 32 µM

Compound: C/C(=C\c1ccccc1)Cn1cc(CCCCCc2c[nH]c(N)n2)nn1
IC50 (Staphylococcus aureus [24]): 0.81 µM
IC50 (Acinetobacter baumannii [25]): 0.98 µM

IC50 (Staphylococcus aureus [26]): 4.2 µM
Compound: CCOC(=O)c1nn(-c2ccc(Cl)cc2)cc1C(=O)c1cc2cc(CN3CCN(Cc4ccc5oc(C(=O)c6cn(-c7ccc(Cl)cc7)nc6C(=O)OCC)cc5c4)CC3)ccc2o1

IC50 (Pseudomonas aeruginosa [27]): 100 µM
Compound: Cc1ccc(NC(=O)Cn2c(N)nc(Cc3ccc(C(C)(C)C)cc3)c2-c2ccccc2Br)cc1

Compound: O=C(/C=C/c1ccc(C(F)(F)F)cc1)c1ccccc1O
Activity (Pseudomonas aeruginosa [28]): 31.74%
Activity (Pseudomonas aeruginosa [29]): 21.91%
Activity (Acinetobacter baumannii [30]): 56.8%

Compound: COc1ccccc1/C=C/C(=O)c1ccccc1O
Activity (Pseudomonas aeruginosa [31]): 57%

Compound: Cn1c(C(=O)N/N=C/c2ccc(Oc3c(Cl)cccc3Cl)cc2)cc(Br)c1Br
IC50 (Staphylococcus aureus [32]): 0.78 µg/mL
IC50 (Staphylococcus aureus [33]): 0.39 µg/mL

Compound: CC[C@H]1OC(=O)[C@H](C)[C@@H](O[C@H]2C[C@@](C)(OC)[C@@H](O)[C@H](C)O2)[C@H](C)[C@@H](O[C@@H]2O[C@H](C)C[C@H](N(C)C)[C@H]2O)[C@](C)(OC)C[C@@H](C)C(=O)[C@H](C)[C@@H](O)[C@]1(C)O [CLARITHROMYCIN]
Activity (Pseudomonas aeruginosa [34]): 29.11%
